Common to all, as to type: binding
Assay [1] has as its target T1, TGF-β3-α2M* complex (Homo sapiens, UniProt P01023).
T1 construct: was purified from pooled citrate-treate human plasma; from tissue; host or cells: pooled citrate-treated human plasma
T1 sequence (P01023 24-1474): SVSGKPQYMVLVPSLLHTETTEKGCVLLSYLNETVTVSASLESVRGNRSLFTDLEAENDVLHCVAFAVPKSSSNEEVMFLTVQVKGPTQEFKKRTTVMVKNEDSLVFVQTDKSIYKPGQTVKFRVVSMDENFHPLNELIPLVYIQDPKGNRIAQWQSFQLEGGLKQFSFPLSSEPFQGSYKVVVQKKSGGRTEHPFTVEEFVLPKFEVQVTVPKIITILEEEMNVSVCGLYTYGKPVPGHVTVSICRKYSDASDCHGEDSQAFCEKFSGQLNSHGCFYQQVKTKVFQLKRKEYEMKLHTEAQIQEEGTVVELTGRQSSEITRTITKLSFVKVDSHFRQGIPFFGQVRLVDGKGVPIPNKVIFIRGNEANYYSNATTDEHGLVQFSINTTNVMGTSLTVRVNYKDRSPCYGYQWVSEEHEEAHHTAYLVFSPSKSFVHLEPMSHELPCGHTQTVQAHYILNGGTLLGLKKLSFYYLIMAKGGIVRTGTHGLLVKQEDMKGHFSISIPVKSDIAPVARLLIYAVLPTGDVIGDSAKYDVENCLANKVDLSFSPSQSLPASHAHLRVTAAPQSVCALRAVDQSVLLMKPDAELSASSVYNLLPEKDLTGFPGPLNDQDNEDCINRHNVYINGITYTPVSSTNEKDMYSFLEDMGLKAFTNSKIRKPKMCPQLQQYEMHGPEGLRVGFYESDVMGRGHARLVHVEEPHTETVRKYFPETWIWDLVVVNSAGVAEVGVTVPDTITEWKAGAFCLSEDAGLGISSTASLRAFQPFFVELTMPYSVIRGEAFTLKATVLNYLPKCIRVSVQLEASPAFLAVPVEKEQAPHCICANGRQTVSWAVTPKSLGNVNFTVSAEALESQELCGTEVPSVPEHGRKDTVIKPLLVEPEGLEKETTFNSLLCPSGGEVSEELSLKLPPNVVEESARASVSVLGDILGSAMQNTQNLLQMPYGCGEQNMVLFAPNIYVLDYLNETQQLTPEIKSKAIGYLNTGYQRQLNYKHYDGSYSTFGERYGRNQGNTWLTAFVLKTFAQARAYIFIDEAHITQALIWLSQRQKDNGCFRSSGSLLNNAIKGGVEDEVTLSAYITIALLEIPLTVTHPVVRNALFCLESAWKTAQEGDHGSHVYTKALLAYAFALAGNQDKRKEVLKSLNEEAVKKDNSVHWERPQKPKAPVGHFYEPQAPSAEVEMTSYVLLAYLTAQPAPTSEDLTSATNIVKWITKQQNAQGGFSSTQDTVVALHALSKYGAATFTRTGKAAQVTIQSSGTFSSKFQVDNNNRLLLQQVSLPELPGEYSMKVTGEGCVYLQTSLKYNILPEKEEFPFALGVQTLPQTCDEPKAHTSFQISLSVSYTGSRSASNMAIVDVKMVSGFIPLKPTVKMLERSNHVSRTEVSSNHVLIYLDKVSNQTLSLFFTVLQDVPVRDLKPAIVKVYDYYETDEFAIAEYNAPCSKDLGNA
The assay is described as follows: Inhibition of 125I-TGF-β3 and α2M* complex formation (5% non-denaturing PAGE). The settings on record: 30% inhibition. As for the experimental part:
TGF- ? isoforms bind to α2M* with different affinities: TGF ? β2>TGF ? β1 ( active sites of TGF ? β1 and TGF- ? 2 responsible for high-affinity binding to ? 2M* are disti from the low-affinity ? 2M* binding site in TGF- ? 3 (19). To determine if fatty acids differentially affect the binding of TGF- ? isoforms to ? 2M*, the effects of various concentrations of arachidonic acid and myristic acid on complex formation of ^125I-labeled TGF ? β isoforms and ? 2M were determined*. […] It inhibited 30% of the complex form . α2M* and TGF ? β2 and TGF ? β3 at 100 and >250 μM, respectively. Arachidon polyunsaturated fatty acid, was a stronger inhibitor of complex formation of ? 2M* and TGF-.β2/TGF ? β3. It inhibited 50% of the complex formation of ? 2M* and ^125I-TGF- ? 2 at 50 μM (FIG. 3A). The observation that myristic acid and arachidonic acid inhibited complex formation of ^125I-TGF- ? […] 2M* complexes in the reaction mixtures were then analyzed by 7.5% SDS-PAGE and autoradiography.
Complex formation of ^125I-TGF-β and ? […] After 30 min at room temperature, the complex formation of ^125I-TGF- ? and. α2M* was determined by 5% non-denaturing polyacrylamide gel electrophoresis (PAGE) or by 7.5% SDS-PAGE following cross-linking by 0.6 mM DSS. After electrophoresis, the gel was stained with Coomassie blue and analyzed by autoradiography. […] 2M* was quantified using a PhosphoImager (Fuji).

The target in assay [2] is T2, 125I-TGF-β1-α2M* complex (Homo sapiens, UniProt P01023).
T2 construct: was purified from pooled citrate-treate human plasma; from tissue; host or cells: pooled citrate-treated human plasma
T2 sequence (P01023 24-1474): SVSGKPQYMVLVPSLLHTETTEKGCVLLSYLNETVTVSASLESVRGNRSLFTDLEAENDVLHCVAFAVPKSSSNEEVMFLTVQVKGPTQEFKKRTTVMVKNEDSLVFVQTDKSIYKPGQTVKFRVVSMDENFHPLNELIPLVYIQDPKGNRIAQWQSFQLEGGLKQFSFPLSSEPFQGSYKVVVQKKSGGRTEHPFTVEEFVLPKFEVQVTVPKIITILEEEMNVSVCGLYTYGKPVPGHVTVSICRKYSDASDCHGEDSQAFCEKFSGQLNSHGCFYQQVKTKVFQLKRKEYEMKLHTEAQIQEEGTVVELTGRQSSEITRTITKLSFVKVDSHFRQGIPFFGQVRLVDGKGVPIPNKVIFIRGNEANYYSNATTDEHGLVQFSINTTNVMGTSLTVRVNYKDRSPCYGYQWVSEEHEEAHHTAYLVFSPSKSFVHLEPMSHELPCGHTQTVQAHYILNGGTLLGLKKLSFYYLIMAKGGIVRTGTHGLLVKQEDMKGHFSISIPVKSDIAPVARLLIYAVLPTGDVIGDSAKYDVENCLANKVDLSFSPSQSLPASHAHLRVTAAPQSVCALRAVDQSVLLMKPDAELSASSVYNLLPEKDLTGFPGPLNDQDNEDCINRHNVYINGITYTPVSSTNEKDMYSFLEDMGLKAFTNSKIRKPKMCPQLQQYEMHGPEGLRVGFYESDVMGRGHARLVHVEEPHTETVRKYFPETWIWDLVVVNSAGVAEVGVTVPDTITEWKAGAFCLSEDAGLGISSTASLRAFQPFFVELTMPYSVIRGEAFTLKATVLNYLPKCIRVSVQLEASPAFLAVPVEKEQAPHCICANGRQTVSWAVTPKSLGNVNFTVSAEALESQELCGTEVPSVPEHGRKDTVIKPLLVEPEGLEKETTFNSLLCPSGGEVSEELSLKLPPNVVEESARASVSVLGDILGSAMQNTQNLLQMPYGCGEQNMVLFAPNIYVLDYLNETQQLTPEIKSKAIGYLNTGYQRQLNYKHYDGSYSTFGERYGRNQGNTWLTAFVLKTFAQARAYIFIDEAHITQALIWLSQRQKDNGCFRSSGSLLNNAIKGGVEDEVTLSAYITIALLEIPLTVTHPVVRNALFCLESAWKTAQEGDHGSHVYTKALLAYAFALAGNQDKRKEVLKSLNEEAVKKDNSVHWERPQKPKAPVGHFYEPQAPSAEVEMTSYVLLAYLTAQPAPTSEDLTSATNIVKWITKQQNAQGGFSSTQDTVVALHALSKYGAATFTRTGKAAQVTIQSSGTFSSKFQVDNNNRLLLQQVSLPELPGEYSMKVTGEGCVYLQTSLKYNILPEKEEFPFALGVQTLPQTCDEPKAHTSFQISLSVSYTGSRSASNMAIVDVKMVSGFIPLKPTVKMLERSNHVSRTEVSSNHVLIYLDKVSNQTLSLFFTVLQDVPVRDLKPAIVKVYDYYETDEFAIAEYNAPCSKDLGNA
As to the kind of experiment: Dissociation of preformed 125I-TGF-β1-α2M* complex. The settings on record: at 250 μM. As for the experimental part: To determine whether fatty acids are capable of dissociating TGF- ? - ? 2M* complexes, various concentrations of arachidonic acid were added to a reaction mixture containing ^125I-TGF- ? 1 or ^125I-TGF ? β3 and α2M* which had been preincubated at room temperature for 30 mi 30 minutes at room temperature, the ^125I-TGF ? β isoform-α2M* complexes in the reaction mixtures were analyzed by 5% non-denaturing PAGE. […] However, lower concentrations of arachidonic acid were effective in inhibiting complex formation of ^125I-TGF- ? 1 and α2M* than were required to dissociate the ^125I-TGF- ? 1- ? 2M* complex.

In assay [3] the target is T3, TGF-β1-α2M* complex (Homo sapiens, UniProt P01023).
T3 construct: was purified from pooled citrate-treate human plasma; from tissue; host or cells: pooled citrate-treated human plasma
T3 sequence (P01023 24-1474): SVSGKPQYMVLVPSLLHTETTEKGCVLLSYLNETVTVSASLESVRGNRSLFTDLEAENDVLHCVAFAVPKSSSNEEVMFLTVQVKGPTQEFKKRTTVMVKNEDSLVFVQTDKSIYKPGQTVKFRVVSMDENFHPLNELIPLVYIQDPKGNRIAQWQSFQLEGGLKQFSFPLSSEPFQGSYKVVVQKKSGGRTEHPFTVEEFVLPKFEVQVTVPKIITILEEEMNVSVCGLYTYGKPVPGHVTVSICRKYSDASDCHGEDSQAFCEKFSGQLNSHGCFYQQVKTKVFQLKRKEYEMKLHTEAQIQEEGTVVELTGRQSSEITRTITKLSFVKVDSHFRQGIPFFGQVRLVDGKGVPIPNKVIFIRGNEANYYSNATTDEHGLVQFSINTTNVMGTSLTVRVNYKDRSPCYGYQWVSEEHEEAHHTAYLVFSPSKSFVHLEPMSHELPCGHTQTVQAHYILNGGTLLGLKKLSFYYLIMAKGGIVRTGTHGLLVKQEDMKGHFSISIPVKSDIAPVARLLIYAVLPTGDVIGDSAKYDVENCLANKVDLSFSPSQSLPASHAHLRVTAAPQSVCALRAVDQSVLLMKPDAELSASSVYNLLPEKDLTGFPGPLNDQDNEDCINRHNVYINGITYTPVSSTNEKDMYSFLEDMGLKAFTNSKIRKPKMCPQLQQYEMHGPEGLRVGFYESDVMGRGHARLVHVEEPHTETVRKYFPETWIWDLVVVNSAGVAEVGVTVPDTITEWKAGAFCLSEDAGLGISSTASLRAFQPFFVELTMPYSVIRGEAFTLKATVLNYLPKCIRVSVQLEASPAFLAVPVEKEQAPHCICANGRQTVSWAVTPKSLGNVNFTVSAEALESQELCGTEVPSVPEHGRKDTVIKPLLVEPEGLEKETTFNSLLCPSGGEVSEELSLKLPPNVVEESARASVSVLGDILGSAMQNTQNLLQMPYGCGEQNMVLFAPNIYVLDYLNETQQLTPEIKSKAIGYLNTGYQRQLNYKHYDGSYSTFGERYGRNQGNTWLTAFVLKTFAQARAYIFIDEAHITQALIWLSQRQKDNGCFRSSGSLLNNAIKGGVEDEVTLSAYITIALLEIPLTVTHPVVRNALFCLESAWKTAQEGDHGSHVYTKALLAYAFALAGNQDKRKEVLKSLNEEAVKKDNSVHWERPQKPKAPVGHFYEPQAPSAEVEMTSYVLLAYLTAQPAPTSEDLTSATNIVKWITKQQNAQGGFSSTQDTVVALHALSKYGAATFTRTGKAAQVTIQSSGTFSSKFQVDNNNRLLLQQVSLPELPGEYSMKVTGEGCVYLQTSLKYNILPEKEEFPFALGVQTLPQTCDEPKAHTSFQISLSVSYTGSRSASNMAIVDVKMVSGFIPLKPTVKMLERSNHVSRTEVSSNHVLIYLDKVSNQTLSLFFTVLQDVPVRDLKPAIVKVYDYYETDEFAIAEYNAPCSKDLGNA
As to the kind of experiment: Inhibition of 125I-TGF-β1 and α2M* complex formation (5% non-denaturing PAGE, autoradiography). As to conditions: ~1 nM 125I-TGF-β1, 10 μg α2M* in 0.05 ml, 30 min room temperature, non-denaturing PAGE; read-out: IC50 for inhibiting complex formation between TGF-β1 and α2M*. As for the experimental part: Saturated and unsaturated fatty acids are present in plasma and tissues (25,26). The effects of various concentrations of saturated fatty acids on the formation of complexes between ^125I-TGF ? β1 and ? 2M* were examined. ^125I-TGF- ? 1 (1 nM) was incubated μg/ml) in the presence of various concentrations of n-caprylic acid ([…]), lauric acid (12 carbon atoms), myristic acid (14 carbon atoms), palmitic acid (16 carbon atoms) and stearic acid (18 carbon atoms). After 30 min at room temperature, the reaction mixture was analyzed by 5% non-denaturing PAGE and autoradiography, a standard method form determining complex formation between TGF-β and α2M* (12). […] At 100 μM, it inhibited 20% of the complex formation between TGF ? β1 and α2M*. Esterification consistently abolished the inhibitory activities of the fatty acids.
Complex formation of ^125I-TGF-β and ? 2M*—The reaction mixture contained 10 μg of . α2M*, ˜1 nM of ^125I-TGF- ? 1, ^125I-TGF ? β2 or ^125I-TGF ? acids (dissolved in 100% ethanol) in 0.05 ml of 50 mM HEPES-NaOH buffer, pH 7.4. The final concentration of ethanol in the reaction mixture was 0.5%. These fatty acids and fatty acid derivatives were soluble under the experimental conditions. After 30 min at room temperature, the complex formation of ^125I-TGF- ? and. α2M* was determined by 5% non-denaturing polyacrylamide gel electrophoresis (PAGE) or by 7.5% SDS-PAGE following cross-linking by 0.6 mM DSS. After electrophoresis, the gel was stained with Coomassie blue and analyzed by autoradiography. The ^125I-TGF- ? - ? 2M* complex which co-migrated with free ? 2M* was quantified using a PhosphoImager (Fuji).

Data on one compound can be found in patent publication US20040229791A1, “Compositions and methods of modulating TGF-beta activity by fatty acids” (priority 2002, published 2004).

The IC50 is the concentration that gives 50% inhibition. On to `CCCCCCCCCCCCCC(=O)O` [myristic acid], for which the “concentration that inhibited 30% of the complex formation of α2M* and TGF-β3” value in assay [1] is more than 250 µM. In addition, in assay [2], the “dissociation of the 125I-TGF-β1-α2M* complex” value was “inactive”. Moreover, the IC50 in assay [3] turned out to be 9.1 µM.
